Experimental data taken from article PMC11468294, “Peptide Amphiphiles as Biodegradable Adjuvants for Efficient Retroviral Gene Delivery” (Advanced Healthcare Materials, 2023).
Where a SMILES comes first, the peptide text is derived from it. The star is where a group is joined. Palmitoyl = CCCCCCCCCCCCCCCC(=O)*

Legend:
[1] = test system: GALV-RV transduction of Jurkat cells; assay: γ-Retroviral infection assay of Jurkat cells (GFP+ cells by flow cytometry); format: cell-based; conditions: three days after transduction, increasing peptide concentration, performed once
Protocol: γ‐Retroviral Infection Assay of Jurkat cells: 50000 Jurkat cells were seeded in 180 µl supplemented RPMI. The cells were inoculated with 20 µl PNF solution 1:1 (v/v) mixed with virus (1:3.2 dilution) after an incubation time of 10 min. The effect of peptide fibrils on retroviral transduction of Jurkat cells was analyzed 3 days post infection by determining the percentage of GFP + cells by flow cytometry. All assays were conducted as described before.^[ [20] ^]

[2] = test system: GALV-RV transduction of CD4+ T cells; assay: γ-Retroviral transduction assay of CD4+ T cells; format: cell-based, Human; conditions: GALV-RV, 0.26, 1.3, 6.5 µM; GFP+ cells after 3 days; performed once
Protocol: γ‐Retroviral transduction Assay CD4+ T cells: Human CD4+ T cells were isolated from a Buffy coat using RosetteSep Human CD4+ Enrichment Cocktail ([…] Technologies) according to manufacturer's protocol. Isolated T cells were activated using Dynabeads Human T‐Activator CD3/CD28 (GibcoTM) according to manufacturer's protocol in presence of 10 ng mL^−1 IL‐2 (Miltenyi Biotec) for three days. After 3 days the magnetic Dynabeads were removed using a magnet and T cells were cultured in presence of 9 ng mL^−1 IL‐7 (Miltenyi Biotec) and 10 ng mL^−1 IL‐15 (Miltenyi Biotec). After 1 day 5 × 10^5 T cells were transduced with GALV‐γ‐RV in absence and presence of PA1, PA2, EF‐C (0.26, 1.3 and 6.5 µM) and Vectofusin−1 (10 µg mL^−1; Miltenyi Biotec), or RetroNectin (20 µg mL^−1; Takara Bio). The concentration of the transduction enhancers corresponds to the concentration on cells and in the case for RetroNectin it corresponds to the concentration that was used to precoat the 24‐well plate. The 24‐well plate was coated with RetroNectin and incubated overnight at 4°C. Wells were blocked with PBS containing 2% BSA for 30 min and washed twice with PBS. […] After 3 days GFP+ T cells were analyzed by flow cytometry. Viability was determined using LIVE/DEAD Fixable Aqua Dead Cell Stain Kit (ThermoFisher Scientific) according to manufacturer's protocol. […]

[3] = test system: CD4+ T cells; assay: Confocal microscopy degradation study with CD4+ T cells; format: in vitro ADME, Human; conditions: 1 µg peptide (5 µg mL-1) added to 250,000 cells, 37°C, 30 min vs 3 d; Proteostat stain
Protocol: Confocal laser scanning microscopy and degradation study with PA1‐3 and CD4+ T cells: The degradation of the peptide assemblies on CD4+ T cells was determined by analyzing fluorescence microscopy images. To this end, 4 µL of the preassembled peptide fibrils EF‐C, PA1 and PA2 (1 mg mL^−1, 1 d in PBS) were mixed with 4 µL of Proteostat (Enzo Life Science, 1 µL stock in 99 µL PBS) and incubated for 15 min. 2 µL of the stained fibrils were added to 198 µL preactivated and nucleus stained (Hoechst 33 342) CD4+ T cells (200 µL, 0.25 × 10^6) resulting in a final 5 µg mL^−1concentration of the peptide. After incubation for 30 min at 37°C the cells were washed with 3x with PBS and incubated in medium (supplemented RPMI containing IL‐15 and 7). Microscopy was conducted on a Zeiss LSM 710 confocal microscope with 20x and 63x objective and laser excitation wavelengths of 405 nm (Hoechst) and 561 nm (Proteostat). The measurements were performed after 30 min and 3 d of incubation at 37°C without any washing step in between. Control experiments to analyze changes of fibril aggregation were conducted analogously without the presence of cells. The evaluation of aggregate size and number was conducted by analyzing Proteostat stained aggregates via the 3D objects counter function of ImageJ 1.53f51 for 5 individual measurements (area 708.5 µm × 708.5 µm) of three individually repeated experiments.

[4] = ThT fluorescence; format: physicochemical; design: key: + = ThT active; − = no ThT fluorescence observed; conditions: 1 mg mL-1 in PBS; ThT-active if fluorescence at least twice the control (PBS with 10% DMSO)
Protocol: ThT‐fluorescence: 20 µL 50 µM of ThT solution in PBS was pipetted in a black 384 well‐plate and 4 µL of the nanofibril solution 1 mg mL^−1 were added. For reference PBS with 10% DMSO (4 µL) instead of fibril solution was added. Subsequently, fluorescence emission was recorded λem = 488 nm upon excitation at λex = 440 nm with 10 nm bandwidth and multiple reads per well (3 × 3) using a Spark 20 M microplate reader (Tecan Group, Ltd). Data processing was performed with Origin software. A peptide fibril was considered as ThT‐active if the fluorescence intensity was at least twice as strong compared to the control (PBS containing 10% DMSO).

[5] = ATR-FT-IR β-sheet content; format: physicochemical; conditions: ATR-IR of lyophilized fibril solutions (1 mg mL-1, PBS); peak integration at 1630 cm-1 in 2nd derivative of amide I region
Protocol: ATR‐FT‐IR: ATR‐IR spectra acquisition and the calculation of β−sheet content were conducted according to a previous report.^[ [20] ^] Briefly, FT‐IR spectra of solid samples were recorded after lyophilization of fibril solutions using a Bruker Tensor II spectrometer equipped with a diamond crystal as ATR element with a spectral resolution of 2 cm–1, each spectrum was an average of 64 scans. The data was processed with Origin software. β−sheet amount was determined by calculating the integral of the peak at 1630 cm^−1 (β‐sheet) relative to the integral between 1650–1700 cm^−1 (native structure) from the 2nd derivative of the FT‐IR spectra.

[6] = test system: Jurkat cells; assay: CellTiter-Glo cell viability, Jurkat cells; format: cell-based; conditions: increasing peptide concentrations, 3 days, biological triplicate
Protocol: Cell Viability with TZM‐bl and Jurkat cells: The cell viability after addition of peptides to TZM‐bl cells and Jurkat was studied via the CellTiter‐Glo assay. To this end, 20000 cells TZM‐bl or 50000 Jurkat cells were incubated with serial diluted peptides. After 3 days the supernatant was removed and 100 µL CellTiter‐Glo Reagent 1:1 diluted in PBS was added. After 10 min 50 µL was transferred to white microplate and luminescence was recorded by Orion microplate luminometer.

Row | Molecule | transduction enhancement of Jurkat cells (GFP+ cells, in words) [1] | transduction efficacy in primary CD4+ T cells (in words) [2] | degradation of aggregates by CD4+ T cells (in words) [3] | ThT fluorescence [4] | β-sheet content [5] [%] | viability of Jurkat cells [6]
1 | CCCCCCCCCCCCCCCC(=O)N[C@@H](Cc1ccccc1)C(=O)N[C@@H](CCC(N)=O)C(=O)N[C@@H](Cc1ccccc1)C(=O)N[C@@H](CCCCN)C(=O)N[C@@H](Cc1ccccc1)C(=O)N[C@@H](CCCCN)C(=O)N[C@@H](CS)C(N)=O [PA2] (Palmitoyl-FQFKFKC-NH2) | strong transduction enhancement similar to EF‐C | in the range of commercially available gold‐standard enhancers RetroNectin and Vectofusin‐1 | not degraded as efficiently | + | 59 | did not reduce the viability
2 | C16-VVVAAAKKK-NH2 [PA1] | strong transduction enhancement similar to EF‐C | in the range of commercially available gold‐standard enhancers RetroNectin and Vectofusin‐1 | almost all small aggregates of PA1 are degraded by CD4+ T cells | + | 57 | did not reduce the viability
